Source: patent publication US9410142B2, “Dendrimer-based excipients for the attenuation of protein aggregation” (Massachusetts Institute of Technology, priority 2010, dated 2016)

Molecular target: α-chymotrypsinogen A (aCgn) (Bos taurus, UniProt P00766)
Assay: aCgn aggregation (monomer loss) at 52.5° C. by size exclusion HPLC
Assay type: physicochemical, Bovine
Details: for relative rate constant for aCgn monomer loss: additive concentration near 0.2 M; for aCgn t95/t95, 0 (Shelf-Life Extension Factor): isotonic concentrations, 20 mM sodium citrate pH 5, 52.5° C., time for 5% loss of protein vs no additive
Procedure: The aggregation of aCgn was accelerated by incubating samples at an elevated temperature. […] In addition to all aggregation experiments being conducted at that temperature, all samples contained 10 mg/mL aCgn, held at pH 5.0 using a 20 mM sodium citrate buffer. 50 μL aliquots of each protein-cosolute mixture were placed in 0.2 mL polymerase chain reaction (PCR) tubes and then incubated in a Bio-Rad Mycycler thermal cycler with a timer initiated when the thermal cycler reached the desired temperature. Each series contained 12 samples and up to 8 different mixtures were tested at the same time during any given experiment. Samples were removed periodically and immediately placed in an ice bath to quench the aggregation reaction. The length of each experiment was planned so that the extent of reaction was such that at least 20% of the protein aggregated, making changes in the rate of aggregation pronounced. After at least five minutes in the ice bath, the samples were briefly spun in a minicentrifuge to remove precipitated aggregates and then transferred to autosampler vials.
All aCgn samples were first treated with phenylmethylsulfonyl fluoride to inhibit residual amounts of active enzyme and, after dialysis, solutions were frozen, rather than lyophilized, in 0.3 mL aliquots and used within 6 months. […] Solutions for the aggregation study were prepared by first preparing a solution of the cosolute of interest in a 20 mM sodium citrate pH 5 buffer at a concentration double that of interest (adjusting the pH to 5 if needed with the appropriate acid or an 8 M sodium hydroxide solution), then mixing 0.3 mL of this solution with 0.3 mL of a thawed aCgn solution. This solution was then divided into twelve aliquots, each 50 μL in volume, and incubated at an elevated temperature, as described below.
15 μL, of each aCgn sample were injected into an Agilent 1200 series HPLC, equipped with a Zorbax GF-250 (4.6×250 mm, 4 micron) size exclusion column and a UV-Vis detector, during a sequence. The HPLC mobile phase contained 25 mM citric acid monohydrate, 25 mM sodium acetate, and 200 mM sodium chloride with the pH adjusted to 4.0 using sodium hydroxide. The flow rate was set at 1 mL/min and samples were monitored at 280 nm.
Peak area at each time point was compared to the peak area for an unstressed sample to create a monomer loss profile normalized with respect to the initial concentration. Each profile was compared to a profile for a sample containing no cosolute to determine the change in aggregation rate upon addition of the cosolute. For a control, each aggregation experimental setup had one protein solution that contained no cosolute to verify that the baseline aggregation rate remained constant amongst all experiments.
The most notable consequence of perturbing a protein's environment is the enhancement or inhibition of protein aggregation. Deyoung L R et al. (1993) Accounts Chem Res 26:614-620; Fink A L (1998) Fold Des 3:R9-R23. The guanidinium-modified dendrimers were added to model protein solutions and incubated at an elevated temperature to determine how they influence the rate of this degradation pathway. […] At low dendrimer concentrations (0.05 M), the rate of monomer loss in the presence of the surface-modified dendrimer is slower than when compared to the reference solution. However, this aggregation rate reduction is insignificant when compared to the rate reduction induced by a high concentration of other commonly used additives such as arginine hydrochloride (ArgHCl), which is also depicted in the figure. Furthermore, as the concentration of the surface-modified dendrimer is increased, the aggregation rate reduction decreases until ultimately, the rate of aggregation is increased. At a concentration of 0.2 M, the surface-modified dendrimer induced rapid aggregation, causing a 50% loss in about 10 minutes as opposed to 30 minutes for the solution containing no cosolute. […]

N=C(N)NCCNC(=O)CCN(CCC(=O)NCCNC(=N)N)CCN(CCC(=O)NCCNC(=N)N)CCC(=O)NCCNC(=N)N.O=P(O)(O)O.O=P(O)(O)O.O=P(O)(O)O.O=P(O)(O)O.O=P(O)(O)O.O=P(O)(O)O [Gdm(H2PO4)]
relative rate constant for aCgn monomer loss (10 mg/mL aCgn, pH 5, 52.5° C.): approximately 0.02
aCgn t95/t95, 0 (Shelf-Life Extension Factor): 18.9

N=C(N)NCCNC(=O)CCN(CCC(=O)NCCNC(=N)N)CCN(CCC(=O)NCCNC(=N)N)CCC(=O)NCCNC(=N)N.O=S(=O)(O)O.O=S(=O)(O)O.O=S(=O)(O)O [Gdm(SO4)1/2]
aCgn aggregation suppression compared with other salt forms / generations (FIG. 5, 6, 8) (10 mg/mL aCgn, pH 5, 52.5° C.): nearly identical ability for inhibiting aggregation as the H2PO4 salt form
relative rate constant for aCgn monomer loss (10 mg/mL aCgn, pH 5, 52.5° C.): approximately 0.02
aCgn t95/t95, 0 (Shelf-Life Extension Factor): 26.9
